Usually melting point stands for the temperature, or range, at which the solid turns liquid.

Regarding `CCCC(C=NNC(=O)OCC)c1ccc(Cl)cc1Cl` (centres undefined), the melting point was in the range of 127 to 129 °C. Under `Nc1c(F)cc(Cn2ccnc2S)cc1F` stands 181 to 184 °C.

Take `COc1ccc(Cn2c(=O)c(C(=O)NC3CCCCC3)c(O)c3cccnc32)cc1`: the melting point turned out to be 149 °C. Next, `CCc1nc(OC)c(NC(=O)N2CCN(c3cc(C)cc(C)c3)CC2)cc1C(=O)Nc1cc(CO)cc(Nc2c3ccccc3nc3ccccc23)c1`: 178 to 180 °C.

`CS(=O)c1ccccc1-c1nc2ncccc2o1` (centres undefined) had a melting point of 154 to 156 °C. Next, `O=C(Nc1ccnn1-c1c(Cl)cc(C(F)(F)F)c(Cl)c1Cl)C(Cl)Cl`: 156 to 161 °C; `COc1ccc(-n2c(Cn3ccnc3)nc3ccccc32)cc1`: 113 to 114 °C; `COCCN(C)C(=O)NCCNCC(O)COc1ccc(OCCOCC(C)C)cc1` (centres undefined): 60 to 63 °C.

In turn, `CCOc1nc(C)c2cc(OC)c(OC)cc2c1C(=O)OC` displayed a melting point of 147 to 149 °C. Next, `CC(=O)N1CCC(C2=C(C#N)C(c3cccc4nonc34)c3c[nH]nc3N2)CC1` (centres undefined): 248 °C; `CC(C)Nc1cccnc1N1CCN(C(=O)c2ccc(C(=O)N3CCN(CCOCCO)CC3)cc2)CC1`: 92 to 93 °C. Under `CC12CCC(C(=O)O)=CC1=CCC1C2CCC2(C)C(C(=O)c3ccc(F)cc3)CCC12` (centres undefined) stands 255 °C; under `CC(=O)SCC(=Cc1ccc(C(F)(F)F)cc1)C(=O)NCCC(=O)OCc1ccccc1`, 79 °C.

`COC(=O)Nc1nc2cc(C(N)c3ccccc3)ccc2[nH]1` (centres undefined): the melting point is > 232 °C. Under `CCOC(=O)c1c(C(F)(F)F)nc(C(F)F)c(C(=O)OC)c1N1CC1` stands 92 to 95 °C; under `Nc1c(N=O)c(=O)n(CC2CCC2)c(=O)n1CC1CCC1`, 251 to 252 °C; under `CC(=O)OCc1nc(C(C)C)c(Sc2cc(Cl)cc(Cl)c2)n1C`, 92 to 93 °C. Under `COc1ccc(C=CC(=O)Nc2cnc3c(C)cc(C)cc3c2-c2ccccc2Cl)c(OC)c1OC` stands 200 to 201 °C; under `COC(=O)N=C(NC(=O)OC)Nc1ccc(SCC(C)C)cc1NC(=O)CSC`, 138 to 140 °C.

Consider `CCN(CC)c1nc(C)nc(SC)c1NC(=O)CBr`, for which the melting point lay within 173 to 174 °C.

`COc1ccc2c(c1)C(=O)C1(O)c3ccc(C(C)C)cc3OC21O` (centres undefined) came in with a melting point of 98 to 102 °C.

`O=S1(=O)CCCS(=O)(=O)N1F` gave a melting point of 171 to 172 °C. Under `CCc1c(-c2ccc(O)cc2)c2cc(C(C)=O)c3ccc(CO)c1n32` stands 194 to 195 °C; under `Cc1nc(-c2cn(CCc3ccc(F)cc3)nn2)sc1C(=O)NCc1cccnc1`, 149 to 150 °C; under `Nc1cc(Oc2ccc3c(C(=O)Nc4cccc(C(F)(F)F)c4)cccc3c2)ncn1`, 243 to 244 °C. Next, `COC(=O)CN(CC(=O)OC)c1cc(O)cc(O)c1`: 200 to 202 °C; `O=C(OCCc1ccccn1)Oc1ccc([N+](=O)[O-])cc1`: 125 to 127 °C; `CN(C)C(=O)Nc1ccc(Oc2cccc(C(F)(F)F)c2)c(Cl)c1`: 166 °C. Molecule `Cc1ccccc1C(=O)CN1C(=O)C(NC(=O)Nc2cccc(C(=O)O)c2)N=C(c2ccccc2F)c2cccc(C)c21` (centres undefined) returned a melting point of 168 to 176 °C. `CCCCOC(=O)[C@H]1CN(c2ccc3c(c2)sc(=O)n3CC)C(=O)O1`: the melting point fell in the range of 99 to 102 °C.

Molecule `COc1ccc(-c2sc3cc(OC)ccc3c2C(=O)c2ccc(/C=C/C(=O)O)cc2)cc1` returned a melting point of 204 to 207 °C. Consider `CCOC(=O)c1cn(CC)c2cc(C(=O)C=C(C)N(C)C)ccc2c1=O`, for which the melting point lay within 178 to 180 °C. Under `CCOc1ccc2c(c1)CCc1c(C#N)cccc1S2` stands 124 to 126 °C.

In turn, `Cc1noc(=O)n1C/C(F)=C\CCI` had a melting point of 58.1 to 58.6 °C.

Values taken from a melting point compilation (Tetko et al.; mined from patent text by program, amines drawn as free bases though some values may be those of a salt).
